Laboratory results from patent US8742102B2, “Process for enantiomeric separation of racemic dihydro-1,3,5 triazines via preferential crystallization” (Poxel, priority 2009, dated 2014).

Assay: Concentration of saturated solution of racemic HCl salt in EtOH, determined by HPLC
Format: physicochemical
Protocol: A saturated solution of racemic HCl salt is prepared by heating 50 g of salt in EtOH (350 ml) to reflux. A clear solution is formed. This is allowed to cool to 40° C. The mixture is seeded with a slurry of racemic HCl salt.
Crystallization is observed. This is allowed to equilibrate overnight. The mixture is filtered into the reaction vessel (preheated to 40° C.). This is heated to 60° C. to ensure complete dissolution, cooled to 40° C. and sampled to determine the concentration by HPLC. This is then cooled to 13° C. in increments of 1° C./5 min. At 13° C. a small amount of crystallisation is observed. A seed sample is also added and this is allowed to equilibrate overnight. A sample is removed for concentration determination at 13° C.

CC1N=C(N)NC(N(C)C)=N1 (racemic) [A1, 2-amino-3,6-dihydro-4-dimethylamino-6-methyl-1,3,5-triazine]
Concentration of sat. solution at 40° C. (equilibrated at 40° C.): 92200 µg/mL | Concentration at 13° C. (equilibrated overnight at 13° C.): 69740 µg/mL
